Laboratory results as given in patent publication US20250346593A1, “IMIDAZO(1,2-1)PYRIDINE DERIVATIVES AS RIPK2 INHIBITORS” (Interline Therapeutics, Inc., priority 2022, published 2025).
pIC50: −log10 of the molar value. Like-named read-outs stand apart in the source and are kept apart here.

Tests used:
[1] = biological target: GST-RIPK2 fusion protein (human RIPK2 amino acids 1-310) (Homo sapiens (Human), UniProt O43353); test: RIPK2 binding competition assay (TR-FRET, Tracer 199)
[2] = tested on: NF-κB pathway (SEAP) in THP1-Dual cells; test: THP-1 Dual cell SEAP assay (L18-MDP stimulated); type: cell-based; settings: Homo sapiens, THP1-Dual, read-out: NFkB THP1 IC50
[3] = read-out: RIPK2 IC50, RIPK2 binding competition assay

Sequence of GST-RIPK2 fusion protein (human RIPK2 amino acids 1-310) (O43353 1-310): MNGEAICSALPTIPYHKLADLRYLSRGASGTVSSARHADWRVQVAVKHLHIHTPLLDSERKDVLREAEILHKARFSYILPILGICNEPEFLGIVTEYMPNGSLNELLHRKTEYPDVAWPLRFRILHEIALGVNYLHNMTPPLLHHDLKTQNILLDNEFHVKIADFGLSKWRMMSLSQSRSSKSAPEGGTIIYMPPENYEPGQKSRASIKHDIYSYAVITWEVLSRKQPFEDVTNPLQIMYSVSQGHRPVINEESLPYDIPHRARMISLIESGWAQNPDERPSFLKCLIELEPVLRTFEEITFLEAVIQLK

Row | Compound | pIC50 [1] | pIC50 [2] | pIC50 [1, 3]
1 | COc1cc2ncc(-c3cc(F)nc(N[C@@H](C)CO)c3)n2cc1S(=O)(=O)C(C)(C)C [Example 222, (2S)-2-({6-fluoro-4-[7-methoxy-6-(2-methylpropane-2-sulfonyl)imidazo[1,2-a]pyridin-3-yl]pyridin-2-yl}amino)propan-1-ol] | 8.60 to 9.00 | > 7.30 | 
2 | COc1cc2ncc(-c3cc(F)nc(N4CCN(C)CC4)c3)n2cc1S(=O)(=O)C(C)(C)C [Example 223, 1-{6-fluoro-4-[7-methoxy-6-(2-methylpropane-2-sulfonyl)imidazo[1,2-a]pyridin-3-yl]pyridin-2-yl}-4-methylpiperazine] | 7.70 to 8.60 | 6.60 to 7.30 | 
3 | COc1cc2ncc(-c3cc(F)nc(NCC(C)(C)O)c3)n2cc1S(=O)(=O)C(C)(C)C [Example 224, 1-({6-fluoro-4-[7-methoxy-6-(2-methylpropane-2-sulfonyl)imidazo[1,2-a]pyridin-3-yl]pyridin-2-yl}amino)-2-methylpropan-2-ol] | 8.60 to 9.00 | > 7.30 | 
4 | COc1cc2ncc(-c3cc(F)nc(NC[C@@H](C)O)c3)n2cc1S(=O)(=O)C(C)(C)C [Example 226, (2R)-1-({6-fluoro-4-[7-methoxy-6-(2-methylpropane-2-sulfonyl)imidazo[1,2-a]pyridin-3-yl]pyridin-2-yl}amino)propan-2-ol] | 8.60 to 9.00 | > 7.30 | 
5 | COc1cc2ncc(-c3cc(F)nc(NC[C@H](C)O)c3)n2cc1S(=O)(=O)C(C)(C)C [Example 227, (2S)-1-({6-fluoro-4-[7-methoxy-6-(2-methylpropane-2-sulfonyl)imidazo[1,2-a]pyridin-3-yl]pyridin-2-yl}amino)propan-2-ol] | 8.60 to 9.00 | > 7.30 | 
6 | COc1cc2ncc(-c3cc(F)nc(NCC(F)(F)CO)c3)n2cc1S(=O)(=O)C(C)(C)C [Example 228, 2,2-difluoro-3-({6-fluoro-4-[7-methoxy-6-(2-methylpropane-2-sulfonyl)imidazo[1,2-a]pyridin-3-yl]pyridin-2-yl}amino)propan-1-ol] |  | > 7.30 | > 9.00
7 | COc1cc2ncc(-c3cc(F)nc(NC[C@@H](F)CO)c3)n2cc1S(=O)(=O)C(C)(C)C [Example 229, (2R)-2-fluoro-3-({6-fluoro-4-[7-methoxy-6-(2-methylpropane-2-sulfonyl)imidazo[1,2-a]pyridin-3-yl]pyridin-2-yl}amino)propan-1-ol] |  | > 7.30 | > 9.00
8 | COc1cc2ncc(-c3cc(F)nc(N[C@H](C)CCO)c3)n2cc1S(=O)(=O)C(C)(C)C [Example 230, (3R)-3-({6-fluoro-4-[7-methoxy-6-(2-methylpropane-2-sulfonyl)imidazo[1,2-a]pyridin-3-yl]pyridin-2-yl}amino)butan-1-ol] | 7.70 to 8.60 | 6.00 to 6.60 | 
9 | COc1cc2ncc(-c3cc(F)nc(NC[C@H](F)CO)c3)n2cc1S(=O)(=O)C(C)(C)C [Example 231, (2S)-2-fluoro-3-({6-fluoro-4-[7-methoxy-6-(2-methylpropane-2-sulfonyl)imidazo[1,2-a]pyridin-3-yl]pyridin-2-yl}amino)propan-1-ol] |  | > 7.30 | > 9.00
10 | COc1cc2ncc(-c3cc(NCCCO)nc(C(F)(F)F)c3)n2cc1S(=O)(=O)C(C)(C)C [Example 232, 3-({4-[7-methoxy-6-(2-methylpropane-2-sulfonyl)imidazo[1,2-a]pyridin-3-yl]-6-(trifluoromethyl)pyridin-2-yl}amino)propan-1-ol] | 7.70 to 8.60 | 6.00 to 6.60 | 
11 | COc1cc2ncc(-c3cc(F)nc(NCCOC(F)F)c3)n2cc1S(=O)(=O)C(C)(C)C [Example 233, 4-(6-(tert-butylsulfonyl)-7-methoxyimidazo[1,2-a]pyridin-3-yl)-N-(2-(difluoromethoxy)ethyl)-6-fluoropyridin-2-amine] |  | > 7.30 | > 9.00
12 | COc1ccn2c(-c3cc(F)nc(NCCCO)c3)cnc2c1 [Example 234, 3-[(6-fluoro-4-{7-methoxyimidazo[1,2-a]pyridin-3-yl}pyridin-2-yl)amino]propan-1-ol] | 7.70 to 8.60 | 6.60 to 7.30 | 
13 | COc1cc2ncc(-c3cc(F)nc(NCCSC)c3)n2cc1S(=O)(=O)C(C)(C)C [Example 235, 4-(6-(tert-butylsulfonyl)-7-methoxyimidazo[1,2-a]pyridin-3-yl)-6-fluoro-N-(2-(methylthio)ethyl) pyridin-2-amine] | 8.60 to 9.00 | > 7.30 | 
14 | COc1cc2ncc(-c3cc(F)nc(N[C@@H](C)CCO)c3)n2cc1S(=O)(=O)C(C)(C)C [Example 236, (3S)-3-({6-fluoro-4-[7-methoxy-6-(2-methylpropane-2-sulfonyl)imidazo[1,2-a]pyridin-3-yl]pyridin-2-yl}amino)butan-1-ol] |  | > 7.30 | > 9.00
15 | COc1cc2ncc(-c3cc(F)nc(NC(C)(C)CO)c3)n2cc1S(=O)(=O)C(C)(C)C [Example 237, 2-({6-fluoro-4-[7-methoxy-6-(2-methylpropane-2-sulfonyl)imidazo[1,2-a]pyridin-3-yl]pyridin-2-yl}amino)-2-methylpropan-1-ol] | 7.70 to 8.60 | 6.60 to 7.30 | 
16 | CCOc1cc2ncc(-c3cc(F)nc(NCCCO)c3)n2cc1C1(F)CCN(C)CC1 [Example 242, 3-({4-[7-ethoxy-6-(4-fluoro-1-methylpiperidin-4-yl)imidazo[1,2-a]pyridin-3-yl]-6-fluoropyridin-2-yl}amino)propan-1-ol] |  | > 7.30 | > 9.00

Row | Compound | pIC50 [1] | pIC50 [2] | pIC50 [1, 3]
17 | CCOc1cc2ncc(-c3cc(F)nc(NCCCO)c3)n2cc1S(=O)(=O)C(C)C [Example 243, 3-({4-[7-ethoxy-6-(propane-2-sulfonyl)imidazo[1,2-a]pyridin-3-yl]-6-fluoropyridin-2-yl}amino)propan-1-ol] |  | > 7.30 | > 9.00
18 | COc1cc2ncc(-c3ccnc(NCCCO)c3)n2cc1S(=O)(=O)C(C)(C)C [Example 247, 3-({4-[7-methoxy-6-(2-methylpropane-2-sulfonyl)imidazo[1,2-a]pyridin-3-yl]pyridin-2-yl}amino)propan-1-ol] | 7.70 to 8.60 | > 7.30 | 
19 | COc1cc2ncc(-c3cc(F)nc(NCCCO)c3)n2cc1C(=O)N(C)C [Example 248, 3-{2-fluoro-6-[(3-hydroxypropyl)amino]pyridin-4-yl}-7-methoxy-N,N-dimethylimidazo[1,2-a]pyridine-6-carboxamide] | 7.70 to 8.60 | 6.60 to 7.30 | 
20 | COc1cc2ncc(-c3cc(F)nc(NCC(C)(C)O)c3)n2cc1C(=O)N(C)C [Example 249, 3-{2-fluoro-6-[(2-hydroxy-2-methylpropyl)amino]pyridin-4-yl}-7-methoxy-N,N-dimethylimidazo[1,2-a]pyridine-6-carboxamide] |  | 6.00 to 6.60 | < 7.70
21 | COc1cc2ncc(-c3cc(F)nc(NCCCO)c3)n2cc1CO [Example 250, 3-({6-fluoro-4-[6-(hydroxymethyl)-7-methoxyimidazo[1,2-a]pyridin-3-yl]pyridin-2-yl}amino)propan-1-ol] | 7.70 to 8.60 | 6.60 to 7.30 | 
22 | CNC(=O)c1cn2c(-c3cc(F)nc(NCCCO)c3)cnc2cc1OC [Example 251, 3-{2-fluoro-6-[(3-hydroxypropyl)amino]pyridin-4-yl}-7-methoxy-N-methylimidazo[1,2-a]pyridine-6-carboxamide] | 8.60 to 9.00 | > 7.30 | 
23 | COc1cc2ncc(-c3cc(NCCCO)cc(F)n3)n2cc1S(=O)(=O)C(C)(C)C [Example 252, 3-((2-(6-(tert-butylsulfonyl)-7-methoxyimidazo[1,2-a]pyridin-3-yl)-6-fluoropyridin-4-yl)amino)propan-1-ol] |  | 6.00 to 6.60 | < 7.70
24 | CCCS(=O)(=O)Nc1cc(-c2cnc3cc(OC)c(S(=O)(=O)C(C)(C)C)cn23)cnc1N [Example 253, N-(2-amino-5-(6-(tert-butylsulfonyl)-7-methoxyimidazo[1,2-a]pyridin-3-yl)pyridin-3-yl)propane-1-sulfonamide] |  | < 6.00 | < 7.70
25 | CCCS(=O)(=O)Nc1cncc(-c2cnc3cc(OC)c(S(=O)(=O)C(C)(C)C)cn23)c1 [Example 254] |  | < 6.00 | < 7.70
26 | CCCS(=O)(=O)Nc1c(F)ccc(-c2cnc3cc(OC)c(S(=O)(=O)C(C)(C)C)cn23)c1F [Example 255, N-(3-(6-(tert-butylsulfonyl)-7-methoxyimidazo[1,2-a]pyridin-3-yl)-2,6-difluorophenyl)propane-1-sulfonamide] | < 7.70 | < 6.00 | 
27 | CCCS(=O)(=O)N(C)c1cccc(-c2cnc3cc(OC)c(S(=O)(=O)C(C)(C)C)cn23)c1 [Example 256, N-(3-(6-(tert-butylsulfonyl)-7-methoxyimidazo[1,2-a]pyridin-3-yl)phenyl)-N-methylpropane-1-sulfonamide] |  | < 6.00 | < 7.70
28 | CCCS(=O)(=O)Nc1c(OC)ccc(-c2cnc3cc(OC)c(S(=O)(=O)C(C)(C)C)cn23)c1F [Example 257, N-(3-(6-(tert-butylsulfonyl)-7-methoxyimidazo[1,2-a]pyridin-3-yl)-2-fluoro-6-methoxyphenyl)propane-1-sulfonamide] |  | < 6.00 | < 7.70
29 | CCCS(=O)(=O)Nc1cccc(-c2cnc3cc(OC)c(S(=O)(=O)C(C)(C)C)cn23)c1F [Example 258, N-(3-(6-(tert-butylsulfonyl)-7-methoxyimidazo[1,2-a]pyridin-3-yl)-2-fluorophenyl)propane-1-sulfonamide] |  | < 6.00 | < 7.70
30 | CCCS(=O)(=O)Nc1cc(-c2cnc3cc(OC)c(S(=O)(=O)C(C)(C)C)cn23)cc(C#N)c1OC [Example 259, N-(5-(6-(tert-butylsulfonyl)-7-methoxyimidazo[1,2-a]pyridin-3-yl)-3-cyano-2-methoxyphenyl)propane-1-sulfonamide] | 7.70 to 8.60 | 6.00 to 6.60 | 
31 | COc1cc2ncc(-c3cc(C#N)c(OC)c(NS(C)(=O)=O)c3)n2cc1S(=O)(=O)C(C)(C)C [Example 260, N-(5-(6-(tert-butylsulfonyl)-7-methoxyimidazo[1,2-a]pyridin-3-yl)-3-cyano-2-methoxyphenyl)methane-sulfonamide] | 7.70 to 8.60 | < 6.00 | 
